Measurements from publication PMC6522372 (Nature chemical biology, 2019).
Positions count from the first letter of the chain named. Names may count otherwise.

T1: McsB (Geobacillus stearothermophilus, UniProt P0DMM5)
T1 sequence (P0DMM5 1-363): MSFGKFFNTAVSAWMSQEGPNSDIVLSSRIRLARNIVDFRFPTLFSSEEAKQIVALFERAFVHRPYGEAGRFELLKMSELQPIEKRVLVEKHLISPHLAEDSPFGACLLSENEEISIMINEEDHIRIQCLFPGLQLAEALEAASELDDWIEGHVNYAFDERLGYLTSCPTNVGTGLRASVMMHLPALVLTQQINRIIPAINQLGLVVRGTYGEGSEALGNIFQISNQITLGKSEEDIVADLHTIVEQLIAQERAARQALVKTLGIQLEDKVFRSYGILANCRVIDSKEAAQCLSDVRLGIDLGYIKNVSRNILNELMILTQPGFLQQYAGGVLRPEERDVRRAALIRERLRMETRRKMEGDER

T2: McsB (Geobacillus stearothermophilus, UniProt P0DMM5)
T2 sequence (P0DMM5 1-355): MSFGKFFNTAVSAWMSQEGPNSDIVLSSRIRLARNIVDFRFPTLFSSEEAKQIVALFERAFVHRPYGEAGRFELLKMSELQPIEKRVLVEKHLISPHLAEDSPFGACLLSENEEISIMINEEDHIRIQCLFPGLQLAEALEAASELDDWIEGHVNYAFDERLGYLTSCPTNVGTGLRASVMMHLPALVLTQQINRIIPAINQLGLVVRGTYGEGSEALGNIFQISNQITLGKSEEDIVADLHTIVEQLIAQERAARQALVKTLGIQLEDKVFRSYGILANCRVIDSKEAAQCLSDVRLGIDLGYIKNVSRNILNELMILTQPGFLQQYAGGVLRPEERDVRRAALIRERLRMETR

B1: full-length McsB R338A/D339A (enzyme)
chain: T1 sequence (P0DMM5 1-363) with R338A, D339A

What was measured:
McsB [1] = target: T1, McsB; test: SPR, steady-state; type: binding
McsB [2] = target: T2, McsB; test: X-ray crystal structure; type: binding
SEC-MALS = target: the molecule itself; test: SEC-MALS

Molecule | Kd (McsB [1]) [µM] | further results
Nc1ncnc2c1ncn2[C@@H]1O[C@H](COP(=O)(O)OP(=O)(O)O)[C@@H](O)[C@H]1O [ADP] | 208 ± 60 | –
Nc1ncnc2c1ncn2[C@@H]1O[C@H](COP(=O)(O)OP(N)(=O)O)[C@@H](O)[C@H]1O [AMP-PN] | – | X-ray crystal structure (soak with AMP-PNP, hydrolysed to AMP-PN) (McsB [2]): the Mg⋅ATP-binding site shows a clear electron density for AMP-PN
Nc1ncnc2c1ncn2[C@@H]1O[C@H](COP(=O)(O)OP(=O)(O)OP(=O)(O)O)[C@@H](O)[C@H]1O [ATP] | 262 ± 27 | –
B1 | – | stoichiometry N (SEC-MALS): 2
